Where a name gives a salt, the structure may show the parent alone.
tested on: post-synaptic Dopamine (D.A.) receptors; assay: Inhibition of Apomorphine Induced Climbing in the Mouse; format: in vivo; settings: male CD1 mice, apomorphine 1 mg/kg s.c., test compound administered subcutaneously 30 minutes prior to apomorphine (b213 says pre-treated orally), climbing scored at 10 and 20 minutes, read-out: ED50 (dose that produced a 50% inhibition of apomorphine-induced climbing)
Procedure: The results in the following table are on illustration of the anti-psychotic activity of the present compounds as shown by Inhibition of Apomorphine Induced Climbing in the Mouse, a standard test.
The test is based on that described by Protais, P., Constantin, J. and Schwartz J. C. (1976), Psychopharmacology, 50, 1-6.
When mice are given a dose of 1 mg/kg apomorphine and then placed in an enclosed environment, such as an inverted wire cage, they are seen to climb around the walls. This behavioural phenomenon is thought to be a consequence of the stimulation of post-synaptic Dopamine (D.A.) receptors in the nucleus accumbens. Inhibition of apomorphine induced climbing is therefore indicative of post-synaptic D.A. receptor blockade in the accumbens.
Groups of 10 male CD1 mice, weighing 25-30 g were pre-treated orally with either graded doses of the test compound or vehicle, at appropriate time intervals before the subcutaneous administration of a sub-maximal dose of apomorphine (1 mg/kg). Immediately after the apomorphine injection the mice were placed in wire `climbing cages` and each animal was scored for climbing behaviour at 10 and 20 minutes post apomorphine as follows:
Four paws on cage floor=0
The test compound was administered subcutaneously 30 minutes prior to administration of apomorphine.
The total score was calculated for each group of mice and expressed as a percentage inhibition of climbing. [formula]
ED50's and fiducial limits were calculated according to the method of Litchfield and Wilcoxon, the ED50 being the dose that produced a 50% inhibition of apomorphine--induced climbing.

Row | Compound | ED50 [mg/kg]
1 | COc1cc(N)c(SC)cc1C(=O)N[C@@H]1C[C@H]2CC[C@@H](C1)N2Cc1ccccc1 [Example 1, 4-Amino-2-methoxy-5-methylthio-N-[3-β-(8-benzyl-8-azabicyclo(3,2,1)octyl)]benzamide] | 0.66
2 | COc1cc(N)c(SC)cc1C(=O)N[C@@H]1C[C@H]2CCC[C@@H](C1)N2Cc1ccc(F)cc1 [Example 2, 4-Amino-2-methoxy-5-methylthio-[N-(9-(4^1-fluorobenzyl)-9-azabicyclo(3.3.1)non-3β-yl)]benzamide] | 0.32
3 | COc1cc(SC)cc(C(=O)N[C@@H]2C[C@H]3CC[C@@H](C2)N3Cc2ccccc2)c1OC [Example 3, 2,3-Dimethoxy-5-methylthio-N[3β(8-benzyl-8-azabicyclo[3.2.1]octyl)]benzamide hydrochloride] | 0.44
4 | COc1cc(SC)cc(C(=O)N[C@@H]2C[C@H]3CCC[C@@H](C2)N3Cc2ccc(F)cc2)c1OC [Example 4, 2,3-dimethoxy-5-methylthio-[N-(9-(4^1-fluorobenzyl)-9-azabicyclo(3.3.1)non-3β-yl)]benzamide] | 0.56
